Measurements reported in PMC9268571, “Parabens Permeation through Biological Membranes: A Comparative Study Using Franz Cell Diffusion System and Biomimetic Liquid Chromatography” (Molecules, 2022).
Like-named read-outs stand apart in the source and are kept apart here.

How the values were obtained:
in vitro = settings: male, pig
[1] = IAM chromatography (phospholipophilicity) on IAM.PC.MG; format: physicochemical; settings: 0.1 M phosphate buffer pH 5.0/acetonitrile, extrapolated to 100% aqueous phase
Method: (§1) Phospholipophilicity was experimentally determined using two IAM analytical columns, i.e., IAM.PC.MG (150 × 4.6 mm, 10 μm p.s., pore size: 300 Å) and IAM.PC.DD2 (150 × 4.6 mm, 10 μm p.s., pore size: 300 Å), both from Regis Chemical Company (Morton Grove, IL, USA). The analyses on the IAM.PC.MG were conducted on a LC-20 AD VP (from Shimadzu Corp., Kyoto, Japan), equipped with an ultraviolet (UV)–visible detector (Shimadzu Model SPD10 AV) set at λ = 254 nm. For the determinations on the IAM.PC.DD2, an alliance HPLC system (Waters Corporation, Milford, MA USA) with 2690/2695 separation module, 2996 PDA detector, 717 plus autosampler, and 2487 dual λ absorbance detector, was used at 254 nm wavelength instead. The methods were set, and chromatograms were recorded by Waters Empower® 3 software (Milford, MA USA). On both columns, employed eluents were 0.1 M phosphate buffer at pH 5.0 and acetonitrile at various percentages with a flow rate of 1.0 mL min^−1. All samples were dissolved in acetonitrile (ca. 10^−4 M), and chromatographic analyses were carried out at 22 ± 2 °C. The two different IAM stationary phases differ from each other in the end-capping of residual amino groups of the silica-propylamine core, which support C10 and C3 alkyl chains being end-capped by both decanoic and propionic anhydrides (IAM.PC.DD2), while IAM.PC.MG supports hydroxy groups being end-capped by methyl glycolate. […] Since all the compounds under our investigation required at least the addition of acetonitrile to the mobile phase to elute within 20 min, at least three different mobile phases containing acetonitrile in percentages (φ), ranging from 10% to 30% (v/v), were employed. All kw IAM values average at least three individual measurements, and the final values are reported as decimal logarithms.

[2] = IAM chromatography (phospholipophilicity) on IAM.PC.DD2; format: physicochemical; settings: 0.1 M phosphate buffer pH 5.0/acetonitrile, extrapolated to 100% aqueous phase
Method: as §1

[3] = parameters: method as in PubCHEM; settings: n-octanol–water; ref PubCHEM; cited from earlier work
[4] = source not stated, no method described; cited from earlier work

Compound	logkw IAM.MG [1]	logkw IAM.DD2 [2]	Log P [3]	S (Solubility in water) [4] [µg/mL]	also measured
O=C(O)c1ccc(O)cc1 [pHBA, 4-Hydroxybenzoic acid]	< 1	< 1	–	–	Papp at 24 h (in vitro): 3.33 ×10⁻⁶ cm/s; Maximum Flux (male, pig): 12.68 ± 4.08 µg/cm^2/h; Permeation (%) (Median) (male, pig): 0.997 (0–1.22) %; time to maximum passage through the porcine skin (male, pig): ≤ 30 min; Log Kp * (determined in the present study) (pig): −5.48 cm/s; logkw IAM.MG ([1]; listed as pHB): −0.955; logkw IAM.DD2 ([2]; listed as pHB): −1.054
COC(=O)c1ccc(O)cc1 [MP, Methyl 4-hydroxybenzoate]	0.615	1.306	–	–	–
O=C(OCc1ccccc1)c1ccc(O)cc1 [BzP, Benzyl 4-hydroxybenzoate]	2.292	2.735	3.56	92	–
CCCCOC(=O)c1ccc(O)cc1 [BuP, Butyl 4-hydroxybenzoate]	1.818	2.812	3.57	–	–
CCOC(=O)c1ccc(O)cc1 [EP, Ethyl 4-hydroxybenzoate]	0.956	1.751	2.47	885	Papp at 24 h (in vitro): 0.261 ×10⁻⁶ cm/s; Log Kp * (determined in the present study) (experimental, Franz cell, porcine ear skin): −6.58 cm/s; time to maximum passage through the porcine skin (from the beginning of the experiment): ≤ 120 min; Maximum Flux (porcine ear skin, saturated solution in PBS pH 5.0 as donor, receptor PBS pH 7.4, 37 °C, ± standard deviation): 2.35 ± 0.71 µg/cm^2/h; Permeation (%) (Median) (porcine ear skin, median, 95% interval confidence in parentheses): 0.110 (0–0.11) %

The next lines start with results.

logkw IAM.MG [1]	logkw IAM.DD2 [2]	Compound	Log P [3]	S (Solubility in water) [4] [µg/mL]	also measured
1.339	2.267	CCCOC(=O)c1ccc(O)cc1 [PrP, Propyl 4-hydroxybenzoate]	–	–	detection in receptor fluids (at any time (½–24 h), fully aqueous donor pH 5.0): not detected
1.708	2.448	CC(C)COC(=O)c1ccc(O)cc1 [iBuP, Isobutyl 4-hydroxybenzoate]	3.57	207	–
1.227	1.914	CC(C)OC(=O)c1ccc(O)cc1 [iPrP, Isopropyl 4-hydroxybenzoate]	–	500	–
